For 13 compounds, TGI and GI50 results are on record in PubChem BioAssay (NCI).

Test systems include BT-549 breast; CAKI-1 renal; DU-145 prostate; HCT-116 colon; HOP-62 NSCLC; HOP-92 NSCLC; K-562 leukemia; OVCAR-4 ovarian; SK-OV-3 ovarian; UACC-257 melanoma.
Assay in all cases: growth of human tumour cells (NCI), 48 h

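48-hour exposure; five concentrations; linearly interpolated endpoints. GI50 = concentration required for 50% inhibition of growth. Definition used: TGI = concentration required for complete inhibition of growth.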

For the compound `COC(c1ccsc1)C(C#N)(C#N)N=Cc1ccsc1` (stereo unspecified), the TGI in the assay with BT-549 breast turned out to be 38.7 µM; in the assay on CAKI-1 renal, 19.2 µM; in the assay on DU-145 prostate it was 28.5 µM; with HCT-116 colon, 25.4 µM; in the assay with HOP-62 NSCLC, 34.8 µM; in the assay on HOP-92 NSCLC, 27.1 µM. The TGI with K-562 leukemia stood at 49.3 µM; in the assay with OVCAR-4 ovarian, 88 µM; in the assay on SK-OV-3 ovarian, 59.1 µM; in the assay with UACC-257 melanoma, 29.6 µM.

For `Cc1c(CNc2ccc(Cl)c(C(=O)NC(CC(=O)O)C(=O)O)c2)ccc2nc(N)nc(N)c12` (stereo unspecified), the GI50 in the assay on BT-549 breast was 666 µM; in the assay on CAKI-1 renal it was 0.617 µM; with DU-145 prostate, 0.594 µM; with HOP-62 NSCLC it was 0.557 µM; in the assay with HOP-92 NSCLC, 288 µM; in the assay on OVCAR-4 ovarian it was 265 µM. Also, the GI50 with SK-OV-3 ovarian is 800 µM; with UACC-257 melanoma it was 2.97 µM. Further, the TGI with BT-549 breast, in the assay with CAKI-1 renal, in the assay on DU-145 prostate, in the assay with HCT-116 colon, with HOP-92 NSCLC and in the assay with K-562 leukemia was over 1000 µM in each case. Moreover, the TGI with OVCAR-4 ovarian, in the assay with SK-OV-3 ovarian and in the assay on UACC-257 melanoma was over 1000 µM each time.

On to `CCSSCS(C)(=O)=O`, for which the TGI in the assay with BT-549 breast was 96.5 µM; with CAKI-1 renal, over 100 µM; in the assay with DU-145 prostate, 50.5 µM; in the assay on HCT-116 colon it was over 100 µM; with HOP-62 NSCLC, over 100 µM; with HOP-92 NSCLC, 73.5 µM. For the same compound, the TGI in the assay with K-562 leukemia is 27.2 µM; in the assay on OVCAR-4 ovarian, 40 µM; with SK-OV-3 ovarian, over 100 µM; in the assay on UACC-257 melanoma it was 57.1 µM.

As to `COc1ccc2c(c1)OCC1(O)Cc3ccccc3OC21` (stereo unspecified), the TGI with BT-549 breast, with CAKI-1 renal, in the assay with DU-145 prostate, with HCT-116 colon, in the assay on HOP-62 NSCLC and in the assay with HOP-92 NSCLC was over 100 µM in each case. In addition, the TGI with K-562 leukemia, with OVCAR-4 ovarian, in the assay on SK-OV-3 ovarian and in the assay with UACC-257 melanoma was over 100 µM throughout.

Take `O=C(Nc1ccccc1)c1cc2c(cc1Cl)Sc1nccn1S2(=O)=O`: the TGI in the assay with BT-549 breast is 60.7 µM; in the assay with CAKI-1 renal it was 7.53 µM; in the assay on DU-145 prostate it was 40.5 µM; in the assay with HCT-116 colon it was over 54.4 µM; in the assay with HOP-62 NSCLC it was over 59.8 µM; in the assay with HOP-92 NSCLC, 18.5 µM. The TGI in the assay on K-562 leukemia was over 100 µM; in the assay with OVCAR-4 ovarian, 99.9 µM; in the assay on SK-OV-3 ovarian, over 100 µM; with UACC-257 melanoma, 53.7 µM.

Consider `COc1ccc(-c2oc3ccc(C)cc3c(=O)c2O)cc1`, for which the TGI in the assay with BT-549 breast, with CAKI-1 renal, in the assay on DU-145 prostate, in the assay with HCT-116 colon, in the assay on HOP-62 NSCLC and with HOP-92 NSCLC was over 100 µM in each case. In addition, the TGI in the assay on OVCAR-4 ovarian, in the assay on SK-OV-3 ovarian and with UACC-257 melanoma was over 100 µM in each case.

With `COc1cc2c(cc1OC)C1CN3C(=O)CCC3C(O)C1c1cc(OC)c(OC)cc1-2` (stereo unspecified), the TGI with BT-549 breast, in the assay with CAKI-1 renal, in the assay with DU-145 prostate, in the assay on HCT-116 colon, in the assay with HOP-62 NSCLC and in the assay on HOP-92 NSCLC was over 100 µM each time. The TGI with K-562 leukemia, with OVCAR-4 ovarian, with SK-OV-3 ovarian and with UACC-257 melanoma was over 100 µM throughout.

As for `CC1=NN(c2cccc(Cl)c2)C2(C1)C(Cl)C(=O)N2c1nc2ccccc2s1` (stereo unspecified), the TGI was 85.9 µM in the assay on BT-549 breast; over 100 µM in the assay on CAKI-1 renal; over 100 µM in the assay with DU-145 prostate; 40.4 µM with HCT-116 colon; 64.8 µM in the assay with HOP-62 NSCLC; 75.6 µM with HOP-92 NSCLC. Further, the TGI with K-562 leukemia was 48.4 µM; in the assay on OVCAR-4 ovarian it was over 100 µM; in the assay on SK-OV-3 ovarian it was 69.1 µM; with UACC-257 melanoma, over 100 µM.

Consider `CCCCC/C=C1/CC(CO)(COC(=O)CC(C(C)C)C(C)C)OC1=O` (stereo unspecified), for which the TGI with BT-549 breast worked out at 28.5 µM; with CAKI-1 renal, 23.1 µM; in the assay with DU-145 prostate it was 27.8 µM; in the assay with HCT-116 colon, 28 µM; in the assay on HOP-62 NSCLC, 20.7 µM; in the assay with HOP-92 NSCLC it was 21.5 µM. Further, the TGI was 66.3 µM with K-562 leukemia, 41.8 µM in the assay with OVCAR-4 ovarian, 40.4 µM with SK-OV-3 ovarian and 47.4 µM with UACC-257 melanoma.

With `Cc1c(-c2ccccc2)c(C#N)c2nnn(-c3ccccc3)c(=O)n12`, the TGI in the assay with BT-549 breast, with CAKI-1 renal, in the assay on DU-145 prostate, with HCT-116 colon, in the assay on HOP-62 NSCLC and in the assay with HOP-92 NSCLC was over 100 µM each time. In addition, the TGI in the assay with K-562 leukemia, with OVCAR-4 ovarian, with SK-OV-3 ovarian and in the assay with UACC-257 melanoma was over 100 µM each time.

Regarding `CCOC(=O)C(=[N+]=[N-])C(=O)C[N+]12CCN(CC1)CC2`, the TGI in the assay with BT-549 breast, in the assay with CAKI-1 renal, with DU-145 prostate, in the assay with HCT-116 colon, in the assay on HOP-62 NSCLC and in the assay on HOP-92 NSCLC was over 100 µM throughout. For the same compound, the TGI with K-562 leukemia, in the assay on OVCAR-4 ovarian, in the assay with SK-OV-3 ovarian and with UACC-257 melanoma was over 100 µM each time.

`CN(Cc1c2ccccc2cc2ccccc12)S(=O)(=O)c1ccc(-c2c3nc(c(-c4ccc(S(=O)(=O)N(C)Cc5c6ccccc6cc6ccccc56)cc4)c4ccc([nH]4)c(-c4ccc(S(=O)(=O)N(C)Cc5c6ccccc6cc6ccccc56)cc4)c4nc(c(-c5ccc(S(=O)(=O)N(C)Cc6c7ccccc7cc7ccccc67)cc5)c5ccc2[nH]5)C=C4)C=C3)cc1`: the TGI was over 100 µM in the assay on BT-549 breast; over 100 µM with CAKI-1 renal; over 100 µM in the assay with DU-145 prostate; over 100 µM in the assay with HCT-116 colon; 84.6 µM in the assay with HOP-62 NSCLC; 83.4 µM in the assay on HOP-92 NSCLC. Also, the TGI in the assay on K-562 leukemia, with OVCAR-4 ovarian, in the assay on SK-OV-3 ovarian and with UACC-257 melanoma was over 100 µM throughout.

For `COc1cc(/C=C2\C[C@H]3[C@@H]4CC=C5C[C@@H](N6CCCC6)CC[C@]5(C)[C@H]4CC[C@]3(C)[C@H]2O)cc(OC)c1OC`, the TGI in the assay on BT-549 breast was 30.1 µM; in the assay on CAKI-1 renal, 29.8 µM; in the assay on DU-145 prostate it was 32.1 µM; with HCT-116 colon, 27.6 µM; in the assay on HOP-62 NSCLC, 30.6 µM; with HOP-92 NSCLC, 25 µM. Besides, the TGI in the assay with K-562 leukemia is over 100 µM; in the assay with OVCAR-4 ovarian it was 51.1 µM; with SK-OV-3 ovarian it was 35.9 µM; in the assay on UACC-257 melanoma, 28.5 µM.
